Reference: patent US6762294B2, “Polynucleotides encoding polymorphic human GABAA receptor α-6 subunit” (The United States of America as represented by the …, priority 1999, dated 2004)
Like-named read-outs stand apart in the source and are kept apart here.

Experiments:
[1] = tested on: children of alcoholics (COAs); experiment: Smooth pursuit eye movement task after intravenous diazepam; type: in vivo, human; conditions: COAs having the Pro385Ser allele relative to COAs having the Pro385 genotype
Description: Initially, the saccadic eye movement velocity and smooth pursuit eye movement gain was measured in the 56 COAs tested. Two baseline measurements for each variable were taken and averaged. The differences from this baseline were then evaluated at set time points after each of four diazepam doses. The data points were used to determine, by a trapezoidal technique, the integrated area under the resulting curve. The area under the curve for the dependent variable was then divided by the area under the curve for plasma diazepam levels to correct for individual variability in diazepam levels. The ratios of the areas under the curves for COAs with the Ser385 homozygous genotype and the Pro/Ser heterozygous genotype were then compared by t-test. […] For the G1031C genotype, a one-way ANOVA was used for assessing association.
COAs were tested on two days about one week apart. Intravenous catheters were inserted into antecubital veins in each of the subjects arms. One intravenous line was used for drawing blood while the other was used for administration of either diazepam or placebo. […]
On each testing day, responses were measured at 12 separate time points: twice at baseline, once after each of the four doses, and at each of six 30 minute intervals after the last dose for a period spanning three hours. Eye movements were evaluated at each time point. […]

[2] = tested on: sons of alcoholics and controls (men)
Description: As part of a larger study, 41 men, were selected from among the first 113 completed 15-year follow-ups in a prospective study. […] Seventeen subjects whose low level of response to ethanol (LR) were in the lower third were compared on five polymorphisms of four genes with 24 men whose reactions to alcohol had been above the median.
For this pilot study, blood samples were taken from the first 41 appropriate consecutive men among the first 113 who completed 15-year follow-ups in an ongoing study. In order to identify subjects who were clearly low on LR, the men were selected to represent the two poles of LR. […] The alcohol challenges, evaluated changes from baseline for subjective feeling of intoxication, standing steadiness, and hormones after drinking 0.75 ml/kg of ethanol. (Schuckit and Gold, Arch Gen Psychiatry 45:211-216 (1986). The overall LR was evaluated as the change from baseline (pre-alcohol) to the time of peak blood alcohol concentration (BAC) (60 minute values) following alcohol consumption.

CN1C(=O)CN=C(c2ccccc2)c2cc(Cl)ccc21 [diazepam]
Sensitivity to diazepam (average smooth pursuit eye movement gain) [1]: reduced sensitivity

CCO [ethanol]
mean (±SD) LR ([2]; 0.75 ml/kg ethanol, 5-HT2A His452Tyr genotype His-His): −.44
mean (±SD) LR ([2]; 0.75 ml/kg ethanol, 5-HT2A His452Tyr genotype His-Tyr): −.20
mean (±SD) LR ([2]; 0.75 ml/kg ethanol, 5-HT2A T102C genotype CC): −.46
mean (±SD) LR ([2]; 0.75 ml/kg ethanol, 5-HT2A T102C genotype TC): −.31
mean (±SD) LR ([2]; 0.75 ml/kg ethanol, 5-HT2A T102C genotype TT): −.71
mean (±SD) LR ([2]; 0.75 ml/kg ethanol, 5-HT2C Cys23Ser genotype Cys): −.39
mean (±SD) LR ([2]; 0.75 ml/kg ethanol, 5-HT2C Cys23Ser genotype Ser): −.73
mean (±SD) LR ([2]; 0.75 ml/kg ethanol, 5-HT Transporter genotype SL): −.30
mean (±SD) LR ([2]; 0.75 ml/kg ethanol, 5-HT Transporter genotype SS): −.00
mean (±SD) LR ([2]; 0.75 ml/kg ethanol, GABAA α6 genotype Pro/Pro): −.27
mean (±SD) LR ([2]; 0.75 ml/kg ethanol, GABAA α6 genotype Pro/Ser): −1.01
mean LR ([2]; 0.75 ml/kg ethanol, combined SL and SS 5-HTT genotype groups): 0.16±0.75
proportion of subjects whose LR fell into the lowest third ([2]; 5-HTT genotype LL): 71.4%
proportion of subjects whose LR fell into the lowest third ([2]; 5-HTT genotype SL): 31.6%
proportion of subjects whose LR fell into the lowest third ([2]; 5-HTT genotype SS): 12.5%
LR at age 20 ([2]; LL/PP genotypes): −0.74±1.13
proportion in the lowest third in response to alcohol ([2]; Pro385 homozygotes): 35.3%
LR at age 20 ([2]; SL/PP genotypes): −0.13±0.88
LR at age 20 ([2]; SL/PS genotypes): 0.59±1.11
LR at age 20 ([2]; SS/PP genotypes): 0.03±0.45
LR at age 20 ([2]; combination of LL 5-HTT and Ser385 GABAA α6 genotypes): −1.29±0.53
Sensitivity to ethanol ([2]; individuals with the Pro385Ser polymorphism compared with the wild-type polymorphism): reduced sensitivity
proportion in the lowest third in response to alcohol ([2]; those with Ser385 (Pro/Ser)): 71.4%
